In patent US20120077836A1, “METHODS OF ADMINISTERING (4AR,10AR)-1-N-PROPYL-1,2,3,4,4A,5,10,10A-OCTAHYDROBENZO [G] QUINOLINE-6,7-DIOL AND RELATED COMPOUNDS ACROSS THE ORAL MUCOSA, THE NASAL MUCOSA OR THE SKIN AND PHARMACEUTICAL COMPOSITIONS THEREOF” (priority 2009, published 2012):
Where “and” joins values, the source holds several entries; their conditions need not be identical. Equal entries are not always repeated. Structures can show the parent of a compound that is named as a salt. Where two headings read alike, the source gives them in different places.

Assay: Intravenous and buccal pharmacokinetic study in the minipig
Assay type: in vivo
Procedure: The test article was compound 10. The vehicles for the test article were Sterile saline (0.9% NaCl) (intravenous administration) supplied by Baxter, Norfolk or Ascorbic acid reconstituted in Water for Injection (buccal administration) supplied by VWR International, Leicestershire. Formulations were prepared on the day of dosing.
Three male minipigs of the Göttingen ApS strain were supplied by Ellegaard Göttingen, Dalmose, Denmark. At initiation of dosing, animals were approximately 15 to 17 weeks old. Each animal was dosed once on three separate occasions according to the following study design:
Animals were deprived of food overnight and anaesthetised with isoflurane in oxygen (administered by facemask), prior to each dosing occasion.
Intravenous administrations were performed by slow manual injection via a temporary catheter placed in the ear vein whilst under anaesthesia, animals were allowed to recover from the anaesthesia immediately after dosing. Whilst anaesthetised, a catheter was inserted into the jugular vein and secured in place for the purpose of blood collection. The catheter was filled with heparin (250 iu/mL in 0.9% sodium chloride). The exterior portion of the catheter was routed from the ventral neck to the dorsum of the minipig and protected by bandaging. The distal end of the catheter was capped and placed in a re-sealable pouch within the bandage. The jugular catheter was retained in place and flushed with heparinised saline every 24 hours.
Buccal administrations were performed by applying the test formulation to the buccal membrane for 5 minutes while the animal was anaesthetised. Any residual formulation remaining in the mouth after the 5 minute application was […]. Animals were allowed to recover from the anaesthesia immediately after dosing.
, all animals on Day 3 following buccal administration of a low dose and all animals on Day 5 following buccal administration of a high dose for pharmacokinetic analysis. The samples (1.0 mL) were collected from the jugular vein (via catheter) into tubes containing EDTA anticoagulant. Prior to addition of the blood sample, 100 microL of a stabiliser (2% beta-mercaptoethanol containing 20 mg/mL ascorbic acid) was added to each pot. The stabiliser was prepared fresh on each day of sample collection. Samples were collected as follows: • Day 1: 5, 10, 15, 30 and 45 minutes and 1, 2, 4, 6, 8, 12 and 16 hours post-dose • Day 3: pre-dose and at 5, 10, 15, 30 and 45 minutes and 1, 2, 4, 6, 8, 12, 16 and 24 hours post-dose • Day 5: pre-dose and at 5, 10, 15, 30 and 45 minutes and 1, 2, 4, 6, 8, 12, 16 and 24 hours post-dose
The times of the blood sampling were generally adhered to. The greatest deviation from the scheduled timepoints was one minute late at the 5 minute timepoint on Day 3. The blood samples were centrifuged within one hour of sample collection and the resultant plasma was frozen prior to analysis.
The plasma concentrations of compound 10 were determined after solid phase extraction of the plasma samples followed by high performance liquid chromatography with tandem mass spectrometric detection (LC-MS/MS) using a sample volume of about 100 microL.
Internal standard solution, containing the internal standard of compound 10 was added to thawed plasma samples (100 microL aliquot). The SPE plate (Oasis HLB, 10 mg) was conditioned with methanol (500 microL) followed by water (500 microL). The sample (approx. 500 microL aliquot) was transferred to the pre-conditioned SPE plate. The sample was then passed through the cartridge, which was then washed with water:methanol (90:10 v/v, 0.5 mL). The sample was then eluted into a fresh 96 well polypropylene collection plate with 20 mM ammonium formate (aq): acetonitrile: formic acid (50:50:2 v/v/v, 250 microL). The organic component of the eluted samples was then evaporated under a gentle stream of nitrogen until approximately 50% of the original volume was remaining. […]

[1] = IV 0.0025 mg/kg, individual animals 1-3, hydrobromide, 0.0025 mg/kg
[2] = buccal 0.010 mg/kg, individual animals 1-3, hydrobromide
[3] = buccal 40 μg/kg versus 10 μg/kg, males
[4] = buccal 0.040 mg/kg, individual animals 1-3, hydrobromide
[5] = buccal, 0.010 to 0.040 mg/kg (4-fold dose increase)

Structure (SMILES): CCCN1CCC[C@@H]2Cc3c(ccc(O)c3O)C[C@H]21 [compound 10, (4aR,10aR)-1-n-Propyl-1,2,3,4,4a,5,10,10a-octahydro-benzo[g]quinoline-6,7-diol hydrobromide]
- Plasma concentration Day 1 Hour 0.08 [1]: 1.72 ng/mL and 1.92 ng/mL
- Plasma concentration Day 1 Hour 0.17 [1]: 0.976 ng/mL and 1.26 ng/mL
- Plasma concentration Day 1 Hour 0.25 [1]: 1.17 ng/mL and 0.828 ng/mL
- Plasma concentration Day 1 Hour 0.5 [1]: 0.922 ng/mL and 0.536 ng/mL
- Plasma concentration Day 1 Hour 0.75 [1]: 0.656 ng/mL and 0.667 ng/mL
- Plasma concentration Day 1 Hour 1 [1]: 0.432 ng/mL and 0.451 ng/mL
- Plasma concentration Day 1 Hour 2 [1]: 0.196 ng/mL and 0.352 ng/mL
- Plasma concentration Day 1 Hour 4 [1]: 0.0763 ng/mL and 0.115 ng/mL
- Plasma concentration Day 1 Hour 6 [1]: 0.0562 ng/mL and 0.0756 ng/mL
- Plasma concentration Day 1 Hour 8 [1]: 0.0339 ng/mL and 0.0407 ng/mL
- Plasma concentration Day 1 Hour 12 [1]: 0.0299 ng/mL and 0.0209 ng/mL
- Plasma concentration Day 1 Hour 16 (IV 0.0025 mg/kg, individual animals 1-3, values below LLOQ 10 pg/mL estimated, hydrobromide, 0.0025 mg/kg): 0.00925 ng/mL and 0.0101 ng/mL
- time of maximum plasma concentration (IV bolus 0.0025 mg/kg, first sampling time): 5 min
- time of maximum plasma concentration (buccal 0.010 mg/kg and 0.040 mg/kg): about 0.75 hours
- Plasma concentration Day 1 Hour 4 [2]: 0.0983 ng/mL and 0.0917 ng/mL and 0.206 ng/mL
- Plasma concentration Day 1 Hour 6 [2]: 0.0845 ng/mL and 0.0265 ng/mL and 0.0758 ng/mL
- Plasma concentration Day 1 Hour 8 [2]: 0.0467 ng/mL and 0.0261 ng/mL and 0.0554 ng/mL
- Plasma concentration Day 1 Hour 12 [2]: 0.0268 ng/mL and 0.0234 ng/mL and 0.157 ng/mL
- Plasma concentration Day 3 Hour 0.08 [2]: 0.0161 ng/mL and 0.379 ng/mL and 0.0552 ng/mL
- Plasma concentration Day 3 Hour 0.17 [2]: 0.117 ng/mL and 0.105 ng/mL and 0.221 ng/mL
- Plasma concentration Day 3 Hour 0.25 [2]: 0.134 ng/mL and 0.185 ng/mL and 0.622 ng/mL
- Plasma concentration Day 3 Hour 0.5 [2]: 0.758 ng/mL and 0.556 ng/mL
- Plasma concentration Day 3 Hour 0.75 [2]: 1.1 ng/mL and 0.964 ng/mL
- Plasma concentration Day 3 Hour 1 [2]: 0.791 ng/mL and 0.817 ng/mL
- Plasma concentration Day 3 Hour 2 [2]: 0.501 ng/mL and 0.372 ng/mL
- Plasma concentration Day 1 Hour 24 (buccal 0.010 mg/kg, individual animals 1-3, values below LLOQ 10 pg/mL estimated, hydrobromide): <0.002 ng/mL and 0.00494 ng/mL and 0.0261 ng/mL
- Increase in AUC0-∞ (first line) [3]: 12.1 fold
- Increase in AUC0-∞ (second line) [3]: 18.9 fold
- increase in Cmax [3]: 11.9 fold
- Plasma concentration Day 1 Hour 4 [4]: 2.56 ng/mL and 0.746 ng/mL and 2.49 ng/mL
- Plasma concentration Day 1 Hour 6 [4]: 0.781 ng/mL and 0.278 ng/mL and 1.73 ng/mL
- Plasma concentration Day 1 Hour 8 [4]: 0.445 ng/mL and 0.212 ng/mL and 0.91 ng/mL
- Plasma concentration Day 1 Hour 12 [4]: 0.272 ng/mL and 0.139 ng/mL and 1.4 ng/mL
- Plasma concentration Day 1 Hour 16 [4]: 0.142 ng/mL and 0.0584 ng/mL and 0.677 ng/mL
- Plasma concentration Day 1 Hour 24 [4]: 0.0443 ng/mL and 0.0789 ng/mL and 0.233 ng/mL
- Plasma concentration Day 5 Hour 0.08 [4]: 2.75 ng/mL and 0.695 ng/mL and 0.427 ng/mL
- Plasma concentration Day 5 Hour 0.17 [4]: 6.06 ng/mL and 1.93 ng/mL and 1.82 ng/mL
- Plasma concentration Day 5 Hour 0.25 [4]: 9.14 ng/mL and 3.33 ng/mL and 3.89 ng/mL
- Plasma concentration Day 5 Hour 0.5 [4]: 8.23 ng/mL and 5.31 ng/mL
- Plasma concentration Day 5 Hour 0.75 [4]: 10.7 ng/mL and 10.5 ng/mL
- Plasma concentration Day 5 Hour 1 [4]: 10.8 ng/mL and 9.58 ng/mL
- Plasma concentration Day 5 Hour 2 [4]: 8.68 ng/mL and 6.34 ng/mL and 3.88 ng/mL
- increase in AUC0-∞ [5]: 12 fold
- increase in Cmax [5]: 12 fold
- concentration at 0.5 h (male, Göttingen, in vivo, 0.01 mg/kg, buccal 0.010 mg/kg, individual animals 1-3, read-out: Plasma concentration Day 3 Hour 0.5): 0.943 ng/mL
- concentration at 0.75 h (male, Göttingen, in vivo, 0.01 mg/kg, buccal 0.010 mg/kg, individual animals 1-3, read-out: Plasma concentration Day 3 Hour 0.75): 1.07 ng/mL
- concentration at 1 h (male, Göttingen, in vivo, 0.01 mg/kg, buccal 0.010 mg/kg, individual animals 1-3, read-out: Plasma concentration Day 3 Hour 1): 1 ng/mL
- concentration at 2 h (male, Göttingen, in vivo, 0.01 mg/kg, buccal 0.010 mg/kg, individual animals 1-3, read-out: Plasma concentration Day 3 Hour 2): 0.589 ng/mL
- concentration at 16 h (male, Göttingen, in vivo, 0.01 mg/kg, buccal 0.010 mg/kg, individual animals, below LLOQ 10 pg/mL, estimated, read-out: Plasma concentration Day 1 Hour 16): 0.00691 ng/mL
- concentration at 16 h (male, Göttingen, in vivo, 0.01 mg/kg, buccal 0.010 mg/kg, mean (one animal only), read-out: Plasma concentration Day 1 Hour 16, Mean): 0.00691 ng/mL
- concentration at 4 h (male, Göttingen, in vivo, 0.01 mg/kg, buccal 0.010 mg/kg, mean, read-out: Plasma concentration Day 1 Hour 4, Mean): 0.132 ng/mL
- concentration at 6 h (male, Göttingen, in vivo, 0.01 mg/kg, buccal 0.010 mg/kg, mean, read-out: Plasma concentration Day 1 Hour 6, Mean): 0.0623 ng/mL
- concentration at 8 h (male, Göttingen, in vivo, 0.01 mg/kg, buccal 0.010 mg/kg, mean, read-out: Plasma concentration Day 1 Hour 8, Mean): 0.0427 ng/mL
- concentration at 12 h (male, Göttingen, in vivo, 0.01 mg/kg, buccal 0.010 mg/kg, mean, read-out: Plasma concentration Day 1 Hour 12, Mean): 0.0691 ng/mL
- concentration at 24 h (male, Göttingen, in vivo, 0.01 mg/kg, buccal 0.010 mg/kg, mean, read-out: Plasma concentration Day 1 Hour 24, Mean): 0.0155 ng/mL
- concentration at 0.08 h (male, Göttingen, in vivo, 0.01 mg/kg, buccal 0.010 mg/kg, mean, read-out: Plasma concentration Day 3 Hour 0.08, Mean): 0.15 ng/mL
